Measured values: patent US9505796B2, “Phosphorylated A2A receptor agonists” (Crozet Medical GMBH, priority 2006, dated 2016)

Legend:
[1] = system: VCAM-1 mRNA expression in aortic ECs; assay: VCAM-1 mRNA expression in cultured aortic ECs (PCR); assay type: cell-based, mouse; settings: CD73−/− ECs, ATL-146e 10 μM for 6 hours
Method: (§1) Mouse aortal ECs were cultured as described. Six mL of type I rat tail collagen (4 mg/mL) combined with 0.1 M NaOH, 3.5 mL 3×DMEM and 5.25 mL of 1×DMEM supplemented with 30% FCS was aliquoted into a 24 well plate, allowed to gel at 37° C. for 1 hour and equilibrated overnight in complete EC medium: RPMI-1640 supplemented with 20% heat inactivated FCS, 2-mercaptoethanol (4 L/L), gentamicin (10 g/mL) and EC growth supplement (50 g/mL, BD Biosciences). Aortas from CD73^−/− or WT mice cut into circular rings were opened longitudinally and placed luminal side down onto the collagen gel. After 2 days, complete medium was added and changed every third day. After 10 days, aortic segments were removed and the collagen gel digested with 0.3% collagenase H. Then, ECs were grown in complete medium and used between passages 2-8. Some ECs were treated with ATL-146e (10 μM) for 6 hours. Mono Mac 6 cells were maintained as described.
RNA was prepared using the RNAqzeous-Micro isolation kit (Ambion) and RNeasy Mini kit (Qiagen) and reverse-transcribed into cDNA using Mo-MLV RT (Invitrogen).

[2] = system: surface protein expression of VCAM-1 in aortic ECs; assay: VCAM-1 surface protein expression in aortic ECs (flow cytometry); assay type: cell-based, mouse; settings: ATL-146e 10 μM for 6 hours
Method: as §1, with “Mono Mac 6 cells were maintained as described.” left out
For immunofluorescence, confluent ECs on glass chamber slides were fixed in methanol, permeabilized with 0.5% triton and reacted with p65 (C-20, Santa Cruz) or isotype control and FITC-conjugated secondary Ab (Boehringer Mannheim). […] After incubation for 30 min at RT, primary Ab binding was detected using a FITCconjugated secondary Ab (Boehringer Mannheim) and analyzed in a FACSCalibur (BD Biosciences). Specific mean fluorescence intensity was determined by subtracting isotype control staining.

[3] = system: arrest of Mono Mac 6 cells on aortic ECs; assay: Adhesion assay: monocyte arrest on ECs under laminar flow; assay type: cell-based, mouse; settings: ATL-146e 10 μM for 6 hours
Method: as §1
Laminar flow assays were performed as described. ECs were perfused with Mono Mac 6 cells (0.5×10^6/mL) pre-treated with or without anti-VLA-4 (10 g/mL, Immunotech) at 1.5 dyn/cm^2. The numbers of firmly arrested and rolling cells were quantified after 4 min in multiple (>10) fields by analyzing images recorded by video microscopy, and expressed as cells/mm^2

[4] = system: wire-injured carotid arteries of WT and CD73−/− mice; assay: Mouse model of carotid artery injury, neointima formation; assay type: in vivo; settings: 4 weeks after injury, continuous infusion 0.004 μg/kg per minute
Text: Male, 6-12 week old CD73^−/− or WT NMRI mice (n=6-8) were left untreated or fed an atherogenic diet containing 21% fat for one week before and up to 4 weeks after injury. Transluminal carotid artery injury was induced by 4 rotational passes of a 0.36-mm guide-wire. After 6 days of diet and one day before carotid injury, some mice (n=10 per group) were anesthetized and underwent implantation of a primed, 28-day osmotic pump (model 2004, Alza Corp) placed subcutaneously via transverse midscapular incision for continuous treatment with ATL (0.004 μg/kg per minute; 200 μL of 1% dimethyl sulfoxide in saline; kind gift from G. W. Sullivan and J. Linden, University of Virginia). Arteries were harvested by in situ perfusion fixation with 4% paraformaldehyde and embedded in paraffin. […]
Neointimal and medial areas were quantified in serial 5 μm sections of common carotid arteries within a standardized distance from the bifurcation (50-250 μm) stained with Movat pentachrome Areas within the external elastic lamina (EEL), internal elastic lamina (TEL) and lumen (L) were determined by computer-assisted planimetry (Diskus software, Hilgers). […] The relative content of macrophages in the neointima was determined in serial sections of the LCA within 300 μm from the bifurcation (6 per mouse, each 50 μm apart). […] Images were recorded using a Leica DMLB microscope and CCD camera. […]

For CCNC(=O)[C@H]1O[C@@H](n2cnc3c(N)nc(C#CCC4CCC(C(=O)OC)CC4)nc32)[C@H](O)[C@@H]1O (stereo partly shown) [ATL-146e], the “VCAM-1 mRNA expression” value [1] was “reduced the elevated VCAM-1 mRNA expression”, the “surface protein expression of VCAM-1” value ([2]; CD73−/− ECs) was “reversed the increased surface protein expression of VCAM-1” and the “surface protein expression of VCAM-1” value ([2]; WT ECs) was “slightly diminished its expression”. The monocyte arrest ([3]; CD73−/− ECs) was “inhibition of the monocyte arrest”, the monocyte arrest ([3]; WT ECs) was “not affected” and the “neointimal hyperplasia in carotid arteries” value ([4]; CD73−/− mice, vs control CD73−/− mice) was “completely prevented neointimal hyperplasia”. The “neointima formation in carotid arteries” value ([4]; WT mice, vs control WT mice) was “significantly inhibited neointima formation”.
